Source: US12109207B2, “Methods of using 4(1H)-quinolone derivatives” (Academia Sinica, priority 2019, dated 2024)
Read-outs that look alike come from different tables or passages of the source.

Key:
[1] = target: T1, purified centrosomes and tubulin (Sus scrofa, UniProt P02554); assay: In vitro microtubule nucleation assay; assay type: biochemical, porcine
T1 construct: purchased Cytoskeleton
Protocol: Purified centrosomes were incubated with or without AS1712 and with porcine tubulin (Cytoskeleton) in 80 mM PIPES, 1 mM MgCl2, 1 mM EGTA, and 1 mM GTP, pH 6.8 for 8 min at 37° C. Microtubule asters were fixed in 1% glutaraldehyde, sedimented onto acid-treated coverslips, and finally subjected to immunofluorescence with anti-α-tubulin. The fiber lengths of the microtubule asters were measured using MetaMorph image analysis software (n=20/group).

[2] = system: CL1-0 and H1975 cells; assay: Pro-apoptotic protein immunoblotting, cancer cells; assay type: cell-based, human; conditions: 24 to 72 h
Protocol: (§1) The cells were harvested and lysed in RIPA buffer (20 mM Tris-HCl, 150 mM NaCl, 1 mM Na2EDTA, 1% sodium deoxycholate, 1% IGEPAL CA-630, 0.1% SDS, pH 7.5) with protease inhibitors (Roche). Protein concentration was measured by the BCA assay. For immunoprecipitation, protein extracts were incubated with mag-beads-AS1712 or mag-beads-control at 4° C. overnight and then washed five times with PBS before immunoblotting. For immunoblotting, equivalent amounts of denatured proteins were separated through SDS-PAGE gels and then transferred to PVDF membranes (Millipore), which were each blocked with 5% nonfat milk in PBS and 0.1% Tween-20 (Sigma Aldrich) for 1 h. Then each membrane was incubated with a primary antibody overnight at 4° C., followed by incubation with a horseradish peroxidase conjugated secondary antibody for 1 h at room temperature. The signal was visualized by enhanced chemiluminescence detection, and images were acquired using a BioSpectrum Imaging System (UVP).

[3] = target: T2, Purified porcine tubulin (Sus scrofa, UniProt P02554); assay: In vitro tubulin polymerization assay; assay type: biochemical; conditions: 5 μM, A340 every min for 1 h at 37° C.
T2 construct: purchased Cytoskeleton
Protocol: Reagents from a Tubulin Polymerization Assay kit (Cytoskeleton) were used according to the manufacturer's instructions. Purified porcine tubulin (4 mg/mL; >99% purity) in G-PEM buffer (80 mM PIPES, 2 mM MgCl2, 0.5 mM EGTA, 1 mM GTP, 15% glycerol, pH 6.9) was mixed with each test compound in the wells of a 96-well plate. Then, the A340 value was recorded each minute for 1 h at 37° C. with the VersaMax microplate reader.

[4] = system: Colon205; assay: Cell cytotoxicity assay (MTS), Colon205; assay type: cell-based; conditions: Homo sapiens
Protocol: (§2) Cells were seeded into the wells of 96-well plates (2000 cells/well). After an overnight culture, the cells were treated with different concentrations of a compound for 72 h. The CellTiter 96 AQueous one-solution cell proliferation assay (MTS) reagent was used to determine cytotoxicity. After treatment with a compound, 20 μL of the MTS reagent was added to each well and the plates were incubated at 37° C. for 1-4 h. Next, the absorbance at 490 nm of the culture medium in each well was determined using a VersaMax microplate reader (Molecular Devices).

[5] = system: IGR-OV1; assay: Cell cytotoxicity assay (MTS), IGR-OV1; assay type: cell-based; conditions: Homo sapiens, IGROV-1
Protocol: as §2

[6] = system: PC-3; assay: Cell cytotoxicity assay (MTS), PC-3; assay type: cell-based; conditions: Homo sapiens
Protocol: as §2

[7] = system: CL1-0 and H1975 cells; assay: Colony formation assay; assay type: cell-based, human; conditions: 12.5-200 nM, 14 days
Protocol: Cells were seeded into the wells of six-well plates (1000 cells/well). After overnight culture, the cells were treated with various concentrations of AS1712 for 2 weeks. Then, the colonies in each well were fixed with 3.7% paraformaldehyde, stained with 0.04% crystal violet, and dissolved in 1 ml DMSO. The absorbance at 590 nm of each DMSO solution was read using the VersaMax microplate reader.

[8] = system: 23 cancer cell lines; assay: Cytotoxicity against 23 cancer cell lines; assay type: cell-based, human
Protocol: as §2

[9] = system: H1975 cells; assay: Cell cytotoxicity assay (MTS), H1975; assay type: cell-based, human; conditions: H1975 cells, 72 h, MTS, read-out: IC50
Protocol: as §2

[10] = system: H1975 xenograft tumor; assay: H1975 xenograft tumor model; assay type: in vivo, BALB/c nude mice; conditions: day 25
Protocol: Using the H1975, MDA-MB-231, and KBtax xenograft models, tumors were established after inoculation into the right flanks of 6-week-old BALB/c nude mice (NARLabs, Taipei, Taiwan). After establishment of the tumors, vehicle and test compounds, which had been dissolved in DMSO, were each injected intraperitoneally into a separate group of animals three times per week. The body mass of each animal and tumor volumes were measured before each drug delivery. Tumor volume was calculated as 0.5W^2L (with W being the width of the smaller diameter and L being the length of the larger diameter). The animal experiment was carried out in accordance with the procedures and guidelines of the Institutional Animal Care and Use Committee, Institute of Biomedical Sciences, Academia Sinica.

[11] = system: HFB cells; assay: Pro-apoptotic protein immunoblotting, HFB; assay type: cell-based, human; conditions: 24 to 72 h, normal HFB cells
Protocol: as §1

[12] = system: BT-549; assay: Cell cytotoxicity assay (MTS), BT-549; assay type: cell-based; conditions: Homo sapiens, BT-549, 72 h
Protocol: as §2

[13] = target: colchicine site of tubulin (Sus scrofa, UniProt P02554); assay: Colchicine competition assay; assay type: binding; conditions: 37° C. for 1 h
Protocol: Tubulin ([…]) and colchicine ([…]) were incubated with the various concentrations of AS1712, nocodazole, or vincristine in 80 mM PIPES, 2 mM MgCl2, 0.5 mM EGTA, pH 6.9 at 37° C. for 1 h. Fluorescence intensities (excitation and emission wavelengths at 365 and 435 nm, respectively) were recorded using an Infinite M200 plate reader (Tecan). Fluorescence values were normalized to the DMSO control.

[14] = system: KBtax; assay: Cell cytotoxicity assay (MTS), KBtax; assay type: cell-based, human
Protocol: as §2

Q: For `CCOC(=O)c1ccc2[nH]c(-c3ccccc3)cc(=O)c2c1` [AS1712, Ethyl 4-oxo-2-phenyl-1,4-dihydroquinoline-6-carboxylate], which “formation of microtubule asters from the centrosome” value [1] is on record?
A: substantially inhibited

Q: What about the “cleavage of poly(ADP-ribose) polymerase (PARP) and caspase-3” value [2] of the same compound?
A: induced cleavage

Q: And the tubulin polymerization [3]?
A: directly inhibit tubulin polymerization

Q: And the IC50 [4]?
A: 57 ± 5.17 nM

Q: What about the IC50 [5] of the same compound?
A: 84 ± 2.07 nM

Q: And the IC50 [6]?
A: 45 ± 1.77 nM

Q: What about the colony-forming abilities [7] of the same compound?
A: suppressed in a dose-dependent manner

Q: What about the IC50 ([8]; Homo sapiens, lung, breast, ovarian, head and neck, colon, prostate, leukemia lines, read-out: IC50 values for the 23 cancer cell lines tested) of the same compound?
A: 16 to 84 nM

Q: What about the therapeutic window ([8]; cancer cell lines vs normal cells) of the same compound?
A: > 100 fold

Q: And the IC50 [9]?
A: 35 nM

Q: And the IC50 ([9]; Homo sapiens, NCI-H1975, 72 h)?
A: 33 ± 4.86 nM

Q: What about the average tumor size ([10]; 4 mg/kg intraperitoneally three times a week) of the same compound?
A: 871.3±106 mm^3

Q: What about the average tumor size ([10]; 8 mg/kg intraperitoneally three times a week) of the same compound?
A: 587.2±67 mm^3

Q: What about the “PARP and caspase-3” value [11] of the same compound?
A: not affected

Q: And the IC50 [12]?
A: 33 ± 1.51 nM

Q: And the colchicine fluorescence [13]?
A: decreased the colchicine fluorescence in a dose-dependent manner

Q: And the IC50 ([14]; Homo sapiens, KBtax, P-gp overexpressing, paclitaxel-selected KB subline)?
A: 30 ± 0.65 nM

Q: What about the “RF, resistance factor (IC50 in resistant cell line/IC50 in parent cell line)” value ([14]; KBtax vs KB) of the same compound?
A: 0.81
